Data on 19 compounds can be found in ChEMBL document CHEMBL1201862, “PubChem BioAssay data set” (2004).

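These data come from cells grown in 96-well plates and exposed to compound for 48 hours at five concentrations. GI50 = concentration required for 50% inhibition of growth.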 Active and inactive are the calls of the source. Rule as the data show it: active = GI50 up to about 1.1 µM and inactive = higher. Bounds are passed on as bounds.

Holding throughout (assay): growth of human tumour cells (NCI), 48 h
Assay [1] relates to DLD-1.
The subject of assay [2] is DMS-114.
Assay [3] has as its system HOP-18.
Assay [4] relates to KM-20L2.
Assay [5] relates to LXFL 529.
Assay [6] has as its system RXF 631.
The subject of assay [7] is SNB-78.
The subject of assay [8] is XF498.
Assay [9] relates to M19-MEL.

For `Cc1ccc(NC(=O)C(=O)CC(=O)C2CCOC2=O)c(C)c1` (centres undefined), the GI50 in assay [1], in assay [2], in assay [3], in [4], in assay [5] and in assay [6] was > 100 µM (inactive) each time. Moreover, the GI50 in [7] and in assay [8] was > 100 µM (inactive) each time.

In the case of `COc1cc(/C=C\c2ccc(Cl)cc2)cc(OC)c1OC`, the GI50 in [1] was 0.319 µM (active); in assay [2] it was 0.394 µM (active); in [3] it was > 100 µM (inactive); in assay [4], 0.105 µM (active); in assay [5], 0.292 µM (active); in assay [9], 0.389 µM (active). Also, the GI50 was 0.118 µM (active) in assay [6], 0.162 µM (active) in assay [7] and 0.274 µM (active) in assay [8].

In the case of `FC(F)(F)c1cccc(C2SCc3nc4ccccc4n32)c1` (centres undefined), the GI50 was 54.2 µM (inactive) in assay [1]; 18.5 µM (inactive) in [2]; 27.8 µM (inactive) in [5]; > 100 µM (inactive) in assay [9]; > 100 µM (inactive) in assay [7].

On to `COC1=C(C)C(=O)C2C(C1=O)C(c1ccc(OC)c(OC)c1)[C@H]2C` (some centres undefined), for which the GI50 in assay [1], in [5], in assay [9], in [6], in assay [7] and in assay [8] was > 100 µM (inactive) throughout.

`CCCCCC(O)(CCCCC)CCCCCCCCC1=C(O)C(=O)c2ccc(=O)[nH]c2C1=O`: the GI50 in assay [1] is 5.37 µM (inactive); in [2] it was 4.37 µM (inactive); in [4], 13.1 µM (inactive); in assay [5], 3.94 µM (inactive); in assay [9], 3.88 µM (inactive); in assay [6], 10.3 µM (inactive). Moreover, the GI50 is 21.2 µM (inactive) in assay [7] and 3.6 µM (inactive) in assay [8].

Regarding `C=C1C2CC(OC(C)=O)C3(C)C(c4ccoc4)OC(=O)[C@@H](O)[C@]13OC1C[C@H](OC(C)=O)C(C)(C)[C@H](C(O)C(=O)OC)[C@]12C` (some centres undefined), the GI50 in assay [1], in assay [2], in assay [3], in [4], in [5] and in assay [9] was > 100 µM (inactive) throughout. In addition, the GI50 in [7] was > 100 µM (inactive).

On to `Clc1cccc2c1OCC1C(c3ccccc3)=NN(c3ccccc3)C21` (centres undefined), for which the GI50 in [1] was > 100 µM (inactive); in [2], 47.6 µM (inactive); in [3], 24 µM (inactive); in [4], > 100 µM (inactive); in assay [5] it was 67.1 µM (inactive); in [9] it was > 100 µM (inactive). Also, the GI50 in assay [6] was > 100 µM (inactive); in [7], 72.9 µM (inactive); in assay [8], > 100 µM (inactive).

`O=c1oc2c(O)c(O)cc3c(=O)oc4c(O)c(O)cc1c4c23` [ELLAGIC ACID]: the GI50 in [1] is > 10 µM (inactive); in [2] it was 33.4 µM (inactive); in assay [3] it was > 10 µM (inactive); in [4] it was 94.4 µM (inactive); in [5], 37 µM (inactive); in assay [9], > 10 µM (inactive). Moreover, the GI50 in [6] is > 10 µM (inactive); in assay [7] it was > 10 µM (inactive); in [8], 35.2 µM (inactive).

Turning to `C/C(=C1/N=C(c2cc([N+](=O)[O-])ccc2Cl)N(c2ccc(Br)cc2)C1=O)c1ccc(N(CCC#N)CCC#N)cc1C`, the GI50 in assay [1] was 15.9 µM (inactive); in assay [2], 12.3 µM (inactive); in assay [3] it was 76.9 µM (inactive); in assay [4], 16.1 µM (inactive); in assay [5] it was 8.11 µM (inactive); in [9], 29.1 µM (inactive). The results for the GI50 in assay [6], in [7] and in [8] were > 100 µM (inactive), 40.6 µM (inactive) and 4.71 µM (inactive), respectively.

Turning to `O=C(c1ccncc1)n1nc(-c2ccccc2)c(/N=N/c2ccccc2[N+](=O)[O-])c1-c1ccccc1`, the GI50 in assay [1] was 49.9 µM (inactive); in assay [2], 21 µM (inactive); in assay [5] it was 74.6 µM (inactive); in assay [9], > 100 µM (inactive); in [6], 38.5 µM (inactive); in [7] it was 65.3 µM (inactive). The GI50 in assay [8] was 33.5 µM (inactive).

In the case of `C/C(CC(=O)Nc1cc(C)ccc1C)=N\NC(=O)c1ccncc1`, the GI50 in assay [1], in assay [4], in assay [5], in [9], in assay [6] and in assay [7] was > 100 µM (inactive) throughout.

Turning to `COc1ccc(-c2cc(O)c3ccc(F)cc3n2)cc1`, the GI50 in [1], in assay [2], in assay [3], in assay [4], in assay [5] and in [9] was > 100 µM (inactive) in each case. Further, the GI50 in assay [6], in assay [7] and in assay [8] was > 100 µM (inactive) in each case.

As for `COc1cc2c(cc1OC(=O)CC(C)O)C1C(OC2=O)C(OC(C)=O)C=C2CCN(C)[C@H]21` (some centres undefined), the GI50 is 69 µM (inactive) in assay [1]; 26.9 µM (inactive) in assay [3]; > 100 µM (inactive) in [4]; 82.4 µM (inactive) in assay [5]; 78.9 µM (inactive) in [9]; 31 µM (inactive) in assay [6]. Moreover, the GI50 in assay [7] is 20.7 µM (inactive); in assay [8], 20.1 µM (inactive).

On to `COc1cc(C(O)C(=O)c2cnc3cc([N+](=O)[O-])ccc3n2)ccc1O` (centres undefined), for which the GI50 in assay [1] is > 100 µM (inactive); in assay [2] it was 49.9 µM (inactive); in assay [4] it was 85.5 µM (inactive); in [5], 74.1 µM (inactive); in assay [9], > 100 µM (inactive); in assay [6], > 100 µM (inactive). In addition, the GI50 in assay [8] was > 100 µM (inactive).

With `S=C(Nc1ccccc1)Nc1[nH]c(=S)sc1-c1nc2ccccc2[nH]1`, the GI50 in assay [1] was 76.9 µM (inactive); in [3], > 100 µM (inactive); in assay [5], 29.6 µM (inactive); in assay [9] it was > 100 µM (inactive); in [6], 65.6 µM (inactive); in [7], 36.1 µM (inactive).

For the compound `CCCCCCCCCCCCCCCCCCCCCC(=O)Nc1ccn(C2OC(CO)C(O)C2O)c(=O)n1` (centres undefined), the GI50 is > 100 µM (inactive) in [1]; 1.04 µM (active) in [2]; > 100 µM (inactive) in assay [3]; > 100 µM (inactive) in assay [4]; > 100 µM (inactive) in assay [5]; 8.17 µM (inactive) in assay [9]. For the same compound, the GI50 in [7] and in [8] was > 100 µM (inactive) each time.

Take `NNC(=O)C(=O)N/N=C1\CCC(=O)CC1C(=O)CCC(=O)Nc1ccc(Cl)cc1` (centres undefined): the GI50 in assay [1] was > 100 µM (inactive); in assay [3], 95.5 µM (inactive); in assay [4], > 100 µM (inactive); in assay [5], > 100 µM (inactive); in assay [9], > 100 µM (inactive); in assay [7] it was > 100 µM (inactive).

Take `O=C(Cc1nc2c3c(ccc2nc1O)C(=O)c1ccccc1C3=O)C(=O)Nc1ccccc1[N+](=O)[O-]`: the GI50 in assay [4] was 19.6 µM (inactive); in assay [5] it was 4.24 µM (inactive); in [9] it was 22.2 µM (inactive); in [7], 4.22 µM (inactive); in [8], 12.6 µM (inactive).

On to `NC(=S)N1N=C2c3ccccc3CCC[C@H]2[C@@H]1c1ccccc1`, for which the GI50 is 3.42 µM (inactive) in assay [1]; 3.98 µM (inactive) in assay [2]; 2.01 µM (inactive) in assay [4]; 3.89 µM (inactive) in assay [5]; 2.81 µM (inactive) in assay [9]; 5.77 µM (inactive) in [7]. In addition, the GI50 in assay [8] was 4.55 µM (inactive).
